Reference: patent US20120172329A1, “PHYTOCHEMICAL COMPOSITIONS INCLUDING XANTHONES FOR ANTI-INFLAMMATORY, ANTI-CYTOKINE STORM, AND OTHER USES” (Thailand Excellence Center for Tissue Engineering, priority 2009, published 2012)

How the values were obtained:
Format in all cases: cell-based
[1] = test system: lipopolysaccharide (LPS) induced synovial fibroblast (SF) cells; assay: IL-1 gene expression relative to GAPDH in LPS induced synovial fibroblast cells incubated with sesamin (RT-PCR), Example Five
Method: Experiments were conducted to evaluate the effect of particular phytochemical compositions provided by the present disclosure on IL-1 gene expression in specified cells found within a body of a living organism. The cells used for the experiment described in […] are lipopolysaccharide (LPS) induced synovial fibroblast (SF) cells. The SF cells were isolated from synovium tissue (also referred to as synovial tissue) using a standard cell isolation technique or method that is known to a person of ordinary skill in the art. In addition, LPS is obtained from a commercial source, for example Sigma-Aldrich Co. It is understood by a person having ordinary skill in the art that the SF cells may be substituted with other immune cells found within the body, for example lymphocytes, monocytes, and macrophages. […]
The amount or level of IL-1 gene expression in the SF cells was measured or determined using methods or techniques known to a person having ordinary skill in the relevant art. In example five, Real-Time PCR (RT-PCR) was used for quantifying the amount of IL-1 gene expression in the SF cells. IL-1beta or IL-1β specific primers were used during RT-PCR, thereby facilitating or effectuating the quantification of IL-1β gene expression in the SF cells. […]

[2] = test system: LPS induced peripheral blood mononuclear cells (PBMCs); assay: IL-1 released by LPS induced PBMCs incubated with sesamin (ELISA), Example Six
Method: (§1) Experiments were conducted to evaluate the effect of particular phytochemical compositions provided by the present disclosure on quantity of IL-1 released by specified cells found within a body of a living organism. Cells used for the experiment described in this example are LPS induced peripheral blood mononuclear cells (PBMCs). It is understood by a person having ordinary skill in the art that the PBMCs may be substituted for other immune cells found within the body. It is also understood by a person having ordinary skill in the art that other inducing substances or chemicals besides LPS, for example viral antigens, may also be used for inducing the PBMCs.
(§2) To conduct the experiments of example six, PBMCs were isolated and prepared using methods or techniques known to a person having ordinary skill in the art. An exemplary method or techniques is the differential density gradient centrifugation technique, the steps or process steps of which is known to a person of ordinary skill in the art. In addition, LPS can be obtained from a commercial source, for example Sigma-Aldrich Co.
The PBMCs are cultured in 10% fetal calf serum in RPMI1640 medium. Seven cultures of PBMCs, i.e. culture 1 to culture 7, were prepared. The contents of each of cultures 1 to 7 were as follows:
(i) Culture 1: First control culture. Includes a predetermined volume of PBMCs (1×10^5 PBMCs/culture);
(ii) Culture 2: Second control culture. Includes the predetermined volume of PBMCs (1×10^5 PBMCs/culture) and LPS at a concentration of 20 ng/ml;
(iii) Culture 3: Includes the predetermined volume of the specified concentration of PBMCs, LPS at a concentration of 20 ng/ml, and a volume of phytochemical composition providing 0.1 uM of sesamin; […]
After a predetermined time period, quantity of IL-1 in each of cultures 1 to 7 was quantified using the ELISA technique (e.g., Biotrak Easy ELISA Aersham). The quantity of IL-1 detected by the ELISA technique in each of cultures 1 to 7 reflects the quantity of IL-1 released by the PBMCs of that culture.

[3] = test system: LPS induced peripheral blood mononuclear cells (PBMCs); assay: IL-2 gene expression relative to GAPDH in LPS induced PBMCs incubated with sesamin (RT-PCR), Example Seven; settings: culture 4, 1.0 ug/ml of sesamin; greatest increase
Method: as §1, with “IL-2 gene expression in” for “quantity of IL-1 released by”
as §2, with “seven,” for “six,”, “Co. […]” for “Co.”
The amount or level of IL-2 gene expression in the PBMCs was measured or determined using methods or techniques known to a person having ordinary skill in the relevant art. In example three, Real-Time PCR (RT-PCR) was used for quantifying the amount of IL-2 gene expression in the PBMCs.

Structure (SMILES): c1cc2c(cc1[C@H]1OC[C@H]3[C@@H]1CO[C@@H]3c1ccc3c(c1)OCO3)OCO2 [sesamin]
- IL-1 gene expression relative to GAPDH decreased ([1]; culture 4, 0.025 mM sesamin, vs control culture 3, minimal decrease): approximately 20%
- IL-1 gene expression relative to GAPDH decreased ([1]; culture 9, 1.0 mM sesamin, vs control culture 2, maximal decrease): approximately 65%
- decrease in quantity of IL-1 ([2]; culture 3, 0.1 uM sesamin, vs control culture 1, minimum decrease): approximately 5%
- decrease in quantity of IL-1 ([2]; culture 4, 0.5 uM sesamin, vs control culture 1, minimum decrease): approximately 5%
- decrease in quantity of IL-1 ([2]; culture 7, 10 uM sesamin, vs control culture 2, maximum decrease): approximately 35%
- increase in IL-2 gene expression relative GAPDH [3]: approximately 220%
